Tested on: hESC-VCMs
Test: Effect of isoproterenol on control and P5-aligned hESC-VCM preparations (optical mapping)
Assay type: cell-based, human
Settings: for CV of control preparations: steady-state pacing at 1 Hz
Description: HESC-VCM preparations were loaded with 4 μM di-4-ANEPPS (Invitrogen, USA) for 20 min at room temperature in Tyrode's solution, consisting of (mM) 140 NaCl, 5 KCl, 1 MgCl2, 1 CaCl2, 10 glucose, and 10 HEPES at pH 7.4, then washed twice before fluorescence imaging using a halogen light filtered by a 515±35 nm band-pass excitation filter and a 590 nm high-pass emission filter. High-resolution optical mapping of AP and conduction properties was performed using a MiCam Ultima (SciMedia, Calif., USA) with a 1X objective and a 1X condensing lens to yield a 10×10 mm^2 field of view. A custom heat plate was introduced to maintain the perfused Tyrode's solution at 37° C. Data were collected at a sampling rate of 200 Hz and analyzed using BV_Ana software (SciMedia). Isoproterenol (Sigma-Aldrich, N.Y., USA) was applied by perfusion at the concentrations indicated.
Electrophysiological protocols were generated using a programmable stimulator (Master8, AMPI, Israel) with the stimuli delivered via a unipolar point-stimulation electrode (1.5× threshold, 10 ms duration) placed perpendicular to the preparation surface. […] The frequency was increased every minute in 0.1-Hz increments with a 5-sec pause.
Mapping was performed during the last 5-10 seconds of each frequency. […] Programmed electrical stimulation, Standard (S1-S2) programmed electrical stimulation (PES) protocol was introduced to study the electrical restitution curve (ERC) of hESC-VCMs. A premature extra-stimulus (S2) was delivered after a train of eight S1 stimuli at a basic cycle length (BCL) of 650 ms. S1-S2 interval was initiated at 600 ms and consecutively shortened in steps of 20 ms until capture has failed. […] There was a pause of 10 s after each S2. The entire stimulation protocol was performed within 30 minutes after di-4-ANEPPS staining.

[1] = P5-aligned preparations, 0.5 μM, n=3

SMILES: CC(C)NCC(O)c1ccc(O)c(O)c1 (stereo not shown) [isoproterenol]
- CV of control preparations (0.1 μM isoproterenol, n=3): 6.3 ± 1.4 cm/s
- CV of control preparations (0.5 μM isoproterenol, n=3): 7.6 ± 1.1 cm/s
- CV of control preparations (1.0 μM isoproterenol, n=3): 8.1 ± 0.6 cm/s
- depolarization (upstroke) velocity (FIG. 6, hESC-VCMs): increasing
- AP duration (FIG. 6F, hESC-VCMs): reduces
- sustained functional reentrant arrhythmias (P5-aligned preparations, 0.5 μM, n=2): no sustained functional reentrant arrhythmias could be observed
- L-CV after isoproterenol [1]: 7.76 cm/s
- T-CV after isoproterenol [1]: 4.91 cm/s
- AR after isoproterenol application (P5-aligned preparations, n=2): 1.76
- control preparations with spontaneous spiral waves (sustained functional reentrant arrhythmias) (control substrates, 2 of 3 preparations, 0.5 μM per FIG. 6C): 66%

— US10160954B2, “Engineered physical alignment of stem cell-derived cardiomyocytes” (The Regents of the University of California, priority 2013, dated 2018)
